According to patent publication US10143696B2, “Methods and compositions for decreasing gastric emptying” (priority 2015, dated 2018):
Entries after “also recorded” stand apart in the source; their conditions may differ.

What was measured:
Format in all cases: in vivo, rat
Sprague-Dawley rats [1] = assay: Gastric emptying of a test meal in rats
Description: Rats were fasted overnight (16-18 hours) with free access to water. The next morning, compound was administered and animals were individually housed in bedding-free cages with pre-weighed food available ad libitum and access to water for 2 hours. The water and food were then removed and the remaining food was re-weighed. Gastric emptying of the ingested meal was assessed 4 hours later. Animals were euthanized by CO2 inhalation followed by thoracotomy. The abdominal cavity was opened, the pylorus and cardia were clamped and the stomach was removed. The excised stomach was weighed and then opened along the greater curvature, rinsed with tap water, lightly dried and re-weighed. The amount of food in the stomach (grams) was estimated based on the difference between the total weight of the stomach plus its contents and the weight of the stomach after the contents were removed. The meal ingested (food intake) was determined by the difference between pre- and post-feeding weight at the end of the 2 hour period. Gastric emptying during the 4 hour experiment is represented as: Gastric emptying=[1−(gastric content/food intake)]×100. Gastric Secretion
Male, Sprague-Dawley rats (weighing between 229-264 g each and 4 rats per test group) were fasted overnight (19 hours). The rats were then orally administered 10 mg/kg, 30 mg/kg or 100 mg/kg of Compound A with a 0.5% MC or Capryol:Solutol:Polyethyleneglycol (CSP) vehicle or with a 0.5% MC or CSP vehicle alone. The rats were then placed in individual, bedding-free cages and allowed ad libitium access to pre-weighed food and water for two hours. The food and water were then removed and the food was reweighed. Gastric emptying was then assessed four hours later by euthanizing the rats and analyzing the stomach and stomach contents. […] Data are represented as the means+the standard error of the means (S.E.M). % Gastric Emptying in 4 hours=(1−(gastric content/food intake))×100. […] Data are represented as the means+S.E.M.
Male, Sprague-Dawley rats (weighing between 235-268 g each and 4-6 rats per test group) were fasted overnight (19 hours). The rats were then subcutaneously administered 10 mg/kg, 30 mg/kg or 100 mg/kg of carbamazepine (Compound B) with a 25% HPBCD vehicle or with a 25% HPBCD vehicle alone. Some test animals were not dosed (i.e., naïve). The rats were then placed in individual, bedding-free cages and allowed ad libitium access to pre-weighed food and water for two hours. The food and water were then removed and the food was reweighed. […] Data are represented as the means+S.E.M. % Gastric Emptying in 4 hours=(1−(gastric content/food intake))×100.
Male, Sprague-Dawley rats (weighing between 238-274 g each and 6 rats per test group) were fasted overnight (19 hours). The rats were then orally administered 30 mg/kg, 100 mg/kg or 300 mg/kg of carbamazepine (Compound B) with a 0.5% MC vehicle or with a 0.5% MC vehicle alone. The rats were then placed in individual, bedding-free cages and allowed ad libitium access to pre-weighed food and water for two hours. The food and water were then removed and the food was reweighed. […] Data are represented as the means+S.E.M. % Gastric Emptying in 4 hours=(1−(gastric content/food intake))×100.
Male, Sprague-Dawley rats (weighing between 235-276 g each and 4-6 rats per test group) were fasted overnight (19 hours).

Sprague-Dawley rats [2] = assay: Gastrointestinal transit, charcoal meal assay; conditions: for dosage level with significant effect on stomach weight / stomach weight: charcoal meal assay; for stomach weight: vs vehicle treated animals; for gastrointestinal transit (% small intestinal transit): charcoal meal, 60 minutes pretreatment, vs vehicle
Description: Small intestinal transit was measured based on a known method which involved the oral administration of a charcoal meal (Gmerek et al. (1986). “Independent central and peripheral mediation of morphine-induced inhibition of gastrointestinal transit in rats.” J Pharmacol Exp Ther 236(1): 8-13). Rats were fasted with free access to water for 18 hours. Test compound or vehicle was dosed prior to oral administration of a charcoal slurry containing activated charcoal, flour and water in a ratio of 1:2:7.5 (10 ml/kg orally). One hour after receiving the charcoal slurry, rats were euthanized by CO2 asphyxiation. The stomach and GI tract was excised from each animal. Whole stomach weight was recorded and the length of the small intestine (cm) (stomach to cecum) and the distance (cm) to the leading edge of charcoal was measured. Small intestinal transit data are expressed as a percentage of the distance traveled (i.e. % small intestinal transit=(distance charcoal traveled)/(total length of small intestine (stomach to cecum)×100). Pretreatment times were determined on the basis of pharmacokinetic data (not shown) and were as follows: Compound A, 60 minutes, Compound C, 60 minutes; carbamazepine, 60 minutes. Morphine was administered with a pretreatment time of 30 mins based on previous experience.

Sprague-Dawley rats [3] = assay: Gastric secretion volume and pH in fasted rats; conditions: lansoprazole 30 mg/kg orally, alone (Example 17)
Description: Gastric section and acidity was assessed by direct measurement in fasted animals (Melo et al. (2006). “Effect of acid secretion blockade on acute gastric mucosal lesions induced by Tityus serrulatus scorpion toxin in anaesthetized rats.” Toxicon 48(5): 543-549). Rats were fasted with free access to water for 24 hours on wire inserts without bedding. The next day, all rats were dosed orally with 0.5% MC (5 ml/kg) to remove any residual stomach contents and test compound or vehicle was administered. The animals were water deprived for 3 hours, anesthetized with isoflurane (5% in O2), and a laparotomy was conducted followed by tight ligation of the pylorus and cardia. After ligation, the stomach was removed and the rat was immediately euthanized by decapitation. The stomach was opened along the greater curvature and gastric fluid collected into Eppendorf tubes and centrifuged (5 min at 10×1000 g). pH was determined by pipetting gastric fluid directly onto an indicator stick (Whatman, Panpeha Plus, pH0-14). Data are represented as the mean volume and mean pH.
Male, Sprague-Dawley rats (weighing between 254-270 g each and 6 rats per test group) were fasted overnight (24 hours) on wire inserts without bedding. The rats were first orally dosed with 0.5% MC vehicle and then subcutaneously injected with 3 mg/kg or 10 mg/kg of Compound A with a 25% HPBCD vehicle or with a 25% HPBCD vehicle alone. The test animals were water deprived for 3 hours and then anesthetized with isoflurane and the pylorus and cardia were tightly ligated. The stomachs were then removed and the rats were euthanized. The gastric fluid was removed from the stomachs and collected in eppendorf tubes by cutting along the greatest curvature and spun in a centrifuge. Gastric secretion data were analyzed by a one-way ANOVA using a Bonferroni Multiple Comparison test, where *P<0.05 and **P<0.01 as compared to the appropriate vehicle. Data are represented as the means+S.E.M. PH data were analyzed by a one-way ANOVA using Dunnett's Multiple Comparison Test. Data are represented as the means+S.E.M.
This Example measured volume and pH of gastric secretion three hours post subcutaneous administration of 10 mg/kg of Compound A. The animals were water deprived during this time.

[4] = comparison at equal or similar dosages, routes and vehicles
[5] = p.o. 10 mg/kg and 30 mg/kg, 0.5% MC vehicle (Example 6)
[6] = p.o. 100 mg/kg and 300 mg/kg, 0.5% MC vehicle (Example 7)
[7] = p.o. 100 mg/kg, 0.5% MC vehicle (Example 6)
[8] = s.c. 10, 30, 100 mg/kg, 25% HPBCD vehicle (Example 6)
[9] = p.o. 30, 100, 300 mg/kg, 0.5% MC vehicle (Example 5)
[10] = s.c. 10, 30, 100 mg/kg, 25% HPBCD vehicle (Example 4)
[11] = i.p. 10, 30, 100 mg/kg, 25% HPBCD vehicle (Example 8)

COc1cc2nc(N3CCN(C(=O)C4CCCO4)CC3)nc(N)c2cc1OC (centres unmarked) [terazosin, reference compound]
% Gastric Emptying in 4 hours (Sprague-Dawley rats [1]; rat, in vivo): Neither terazosin nor atenolol alone had a significant effect

NC(=O)[C@@H]1CC[C@H](c2ccc(OCc3ccccc3F)cc2)N1 [Compound C]
gastric emptying inhibition potency compared between compounds (Sprague-Dawley rats [1]; [4]): least potent
% Gastric Emptying in 4 hours (Sprague-Dawley rats [1]; [5]): did not affect
food intake (Sprague-Dawley rats [1]; [5]): reduced food intake
stomach weight (Sprague-Dawley rats [1]; [5]): did not affect
% Gastric Emptying in 4 hours (Sprague-Dawley rats [1]; [6]): inhibits gastric emptying
stomach weight (Sprague-Dawley rats [1]; [6]): increases stomach weight
% Gastric Emptying in 4 hours (Sprague-Dawley rats [1]; [7]): inhibits the percentage of gastric emptying
food intake (Sprague-Dawley rats [1]; [7]): reduces food intake
stomach weight (Sprague-Dawley rats [1]; [7]): increases stomach weight
food intake (Sprague-Dawley rats [1]; p.o. 10-300 mg/kg, 0.5% MC vehicle (Example 7)): reduces food intake
% Gastric Emptying in 4 hours (Sprague-Dawley rats [1]; [8]): did not inhibit the percentage of gastric emptying
food intake (Sprague-Dawley rats [1]; [8]): decreased
stomach weight (Sprague-Dawley rats [1]; [8]): decreased
dosage level with significant effect on stomach weight (Sprague-Dawley rats [2]): 100 mg/kg
stomach weight (Sprague-Dawley rats [2]): statistically significant increase in stomach weight
gastrointestinal transit (% small intestinal transit) (Sprague-Dawley rats [2]): No statistically significant decrease in gastrointestinal transit

NC1=N[C@H](O)[C@H]2[C@H]3O[C@]4(O)O[C@@H]([C@@H](O)[C@@]2(N1)[C@@H]4O)[C@]3(O)CO [TTX, tetrodotoxin, reference compound]
gastric emptying inhibition potency compared between compounds (Sprague-Dawley rats [1]; rat, in vivo): comparable to that achieved by 30 mg/kg of Compound A administered orally
% Gastric Emptying in 4 hours (Sprague-Dawley rats [1]; rat, in vivo, sc): inhibits gastric emptying; also recorded: statistically significant decrease in gastric emptying
food intake (Sprague-Dawley rats [1]; rat, in vivo, sc): reduces food intake; also recorded: dose dependent decrease in food intake

Cc1c(OCC(F)(F)F)ccnc1C[S+]([O-])c1nc2ccccc2[nH]1 (centres unmarked) [Lansoprazole, lansoprazole, reference compound]
pH of gastric secretion (Sprague-Dawley rats [3]): increase the pH
volume of gastric secretion (Sprague-Dawley rats [3]): did not affect volume of gastric secretion

CN1CC[C@]23c4c5ccc(O)c4O[C@H]2[C@@H](O)C=C[C@H]3[C@H]1C5 [morphine, reference compound]
gastrointestinal transit (Sprague-Dawley rats [2]; rat, in vivo): less than 35%
stomach weight (average) (Sprague-Dawley rats [2]; rat, in vivo): over 7 g

NC(=O)N1c2ccccc2C=Cc2ccccc21 [Compound B, carbamazepine, reference compound]
percent of gastric inhibition, oral 0.5% MC compared with subcutaneous 25% HPBCD (Sprague-Dawley rats [1]; equal dosage, Examples 4 and 5): numerically more potent
% Gastric Emptying in 4 hours (Sprague-Dawley rats [1]; [9]): inhibits gastric emptying
food intake (Sprague-Dawley rats [1]; [9]): reduces food intake
stomach weight (Sprague-Dawley rats [1]; [9]): increases stomach weight
stomach weight (Sprague-Dawley rats [1]; s.c. 100 mg/kg, 25% HPBCD vehicle (Example 4)): stomach weight increase
% Gastric Emptying in 4 hours (Sprague-Dawley rats [1]; [10]): inhibits the percent of gastric emptying
food intake (Sprague-Dawley rats [1]; [10]): food intake decreased
dosage level with significant effect on stomach weight (Sprague-Dawley rats [2]): 30 mg/kg
stomach weight (Sprague-Dawley rats [2]): statistically significant increase in stomach weight
gastrointestinal transit (% small intestinal transit) (Sprague-Dawley rats [2]): No statistically significant decrease in gastrointestinal transit; also recorded: decreasing trend

O=S(=O)(Nc1nncs1)c1cc(Cl)c(Oc2ccc(C(F)(F)F)cc2-c2ccnnc2)cc1F [Compound D]
gastric emptying inhibition potency compared between compounds (Sprague-Dawley rats [1]; [4]): greater gastric emptying inhibition potency than Compounds B and C
stomach weight (Sprague-Dawley rats [1]; i.p. 10 mg/kg and 100 mg/kg, 25% HPBCD vehicle (Example 8)): increases stomach weight
% Gastric Emptying in 4 hours (Sprague-Dawley rats [1]; [11]): inhibits gastric emptying
food intake (Sprague-Dawley rats [1]; [11]): reduces food intake
